# From article PMC9508196 (Scientific Reports, 2022)
# Non-standard residues stand in square brackets, D forms with d. Residues, ends and D or L forms follow the SMILES beside them. No end group written: not given here.
# What was measured:
# [1] = test system: mouse fibroblast (L929) cells; assay: In vitro cytotoxicity assay (MTT); type: cell-based; settings: 24 h
# Description: The colorimetric 3-(4,5 dimethylthiazol-2-yl)-2,5-diphenyltetrazolium bromide (MTT; Invitrogen) dye reduction assay was used to determine the cytotoxicity of peptides on mouse fibroblast (L929) cells (NCTC clone 929) according to a modified MTT assay. L929 cells were cultured in Dulbecco’s Modified Eagle Medium (DMEM; Gibco) containing 10% fetal bovine serum (FBS; Gibco) and 100 U/ml penicillin–streptomycin in a fully humidified atmosphere of 95% air and 5% CO2 at 37 °C. The cells (10^5 cells/well) were seeded on 96-well plates and incubated with serially diluted peptide (0.98 to 250 μg/ml) for 24 h. At the end of incubation period, MTT solution (100 µl, 0.4 mg/ml) was added to each well and incubated for 4 h. The supernatants were removed and replaced by 100 µl of DMSO to dissolve the purple formazan crystals. Absorbance was measured using a MultiskanTM FC microplate reader at a wavelength of 570 nm. Cells without peptides served as negative controls. Cell viability (percentage) was calculated using the following equation: %Cell viability=OD570of treated sample-ODBlank/OD570of control-ODBlank×100%
# [2] = test system: Bacillus cereus ATCC 11,778; type: cell-based; settings: B. cereus ATCC 11,778; broth microdilution, MHB, 24 h, 37 °C, triplicate
# Text: (§1) Ten strains of both Gram-positive and -negative bacteria, including Staphylococcus aureus ATCC 25,923, S. epidermidis ATCC 12,228, Bacillus cereus ATCC 11,778, Listeria monocytogenes 10403S, Salmonella typhimurium ATCC 13,311, Pseudomonas aeruginosa ATCC 27,853, Shigella sonnei ATCC 11,060, A. baumannii ATCC 19,606, Escherichia coli ATCC 25,922 and E. coli O157:H7, were used in this study. Eight clinical isolates of multidrug-resistant (MDR) and extensively drug-resistant (XDR) A. baumannii, isolated from human (blood, sputum, respiratory sample, sterile site sample and urine), were kindly provided by Asst. Prof. Dr. Sakawrat Kanthawong (Faculty of Medicine, Khon Kaen University, Thailand) (Table S1). All bacterial strains, excluding L. monocytogenes 10403S and E. coli, were cultured in tryptic soy broth (TSB). L. monocytogenes was grown in TSB supplemented with 0.6% yeast extract (TSB-YE), and E. coli was cultured in Luria broth (LB). All of bacteria were cultured at 37 °C with continuous shaking at 220 rpm.
# (§2) Minimum inhibitory concentration (MIC) of peptides and antibiotics was assessed by a modified version of the broth microdilution method from the Clinical and Laboratory Standards Institute (CLSI) as previously described. In brief, mid-log phase growths of microbial strains were cultured in Müeller-Hinton broth (MHB) with an initial inoculum of 2–8 × 10^5 CFU/mL. Bacteria suspensions were incubated in sterile 96-well plates with test agents at desired concentrations. […] Minimum bactericidal concentration (MBC) determination was performed using a modified version of the colony count assay. In brief, fifty µl of all non-turbid wells from MIC experiments were spread on agar plates. The MBC value was defined as the lowest concentration of peptides with no colony growth on the plate. All assays were performed in triplicate.
# [3] = test system: Listeria monocytogenes 10403S; type: cell-based; settings: L. monocytogenes 10403S; broth microdilution, MHB, 24 h, 37 °C, triplicate
# Text: as §1, §2
# [4] = test system: Escherichia coli ATCC 25,922; type: cell-based; settings: E. coli ATCC 25,922; broth microdilution, MHB, 24 h, 37 °C, triplicate
# Text: as §1, §2
# [5] = test system: Staphylococcus epidermidis ATCC 12,228; type: cell-based; settings: S. epidermidis ATCC 12,228; broth microdilution, MHB, 24 h, 37 °C, triplicate
# Text: as §1, §2
# [6] = test system: Staphylococcus aureus ATCC 25,923; type: cell-based; settings: S. aureus ATCC 25,923; broth microdilution, MHB, 24 h, 37 °C, triplicate
# Text: as §1, §2
# [7] = test system: Escherichia coli O157:H7 MT strain; type: cell-based; settings: E. coli O157:H7 MT strain; broth microdilution, MHB, 24 h, 37 °C, triplicate
# Text: as §1, §2
# [8] = test system: Shigella sonnei ATCC 11,060; type: cell-based; settings: S. sonnei ATCC 11,060; broth microdilution, MHB, 24 h, 37 °C, triplicate
# Text: as §1, §2
# [9] = test system: Pseudomonas aeruginosa ATCC 27,853; type: cell-based; settings: P. aeruginosa ATCC 27,853; broth microdilution, MHB, 24 h, 37 °C, triplicate
# Text: as §1, §2
# [10] = test system: Salmonella Typhimurium ATCC 13,311; type: cell-based; settings: S. Typhimurium ATCC 13,311; broth microdilution, MHB, 24 h, 37 °C, triplicate
# Text: as §1, §2
# [11] = test system: A. baumannii D-10.1–1 (MDR); type: cell-based, Acinetobacter baumannii; settings: clinical isolate D-10.1–1 (MDR), urine
# Text: as §1, §2
# [12] = test system: A. baumannii D-10.1–2 (MDR); type: cell-based, Acinetobacter baumannii; settings: clinical isolate D-10.1–2 (MDR), urine
# Text: as §1, §2
# [13] = test system: A. baumannii ATCC 19,606; assay: microbe, parasite or virus in culture; settings: 20 serial 24-h passages at half-MIC, MHB
# Description: A. baumannii ATCC 19,606 was adjusted to approximately 10^6 CFU/ml in MHB. […] After 24 h incubation, bacterial suspensions of the wells at half-MIC concentration of tested agent were taken and washed 2 times with MHB to prepare the next initial-passage of bacteria. Twenty repeat passages were performed for each tested compound. Along with the test, a negative control was included: the MIC value of bacteria cultured in MHB-deionized water after 20 passages.
Molecule,cell viability ([1]; all tested peptide concentrations (0.98 to 250 μg/ml)) [%],MIC [2] [µg/mL],MIC [3] [µg/mL],MIC [4] [µg/mL],MIC [5] [µg/mL],MIC [6] [µg/mL],MIC [7] [µg/mL],MIC [8] [µg/mL],MIC [9] [µg/mL],MIC [10] [µg/mL],MBC [11],MIC [11],MBC [12],MIC [12],MIC after 20 passages [13] [µg/mL],cell viability ([1]; 1 × and 2 × MIC) [%],cell viability ([1]; peptide 62.5 µg/mL)
RLFRRVKKVAGKIAKRIWK-NH2 [AP19],100,7.81,3.91,3.91,1.95,7.81,15.63,3.91,3.91,1.95,7.81(7.81) µg/ml,7.81(7.81) µg/ml,3.91(3.91) µg/ml,3.91(3.91) µg/ml,–,–,–
CC[C@@H](C)[C@@H](NC(=O)[C@@H](CCCCN)NC(=O)CNC(=O)[C@@H](C)NC(=O)[C@H](NC(=O)[C@@H](CCCCN)NC(=O)[C@@H](CCCCN)NC(=O)[C@H](NC(=O)[C@@H](CCCNC(=N)N)NC(=O)[C@@H](CCCNC(=N)N)NC(=O)[C@@H](Cc1ccccc1)NC(=O)[C@@H](CC(C)C)NC(=O)[C@H](N)CCCNC(=N)N)C(C)C)C(C)C)C(=O)N[C@H](C)C(=O)N[C@H](CCCCN)C(=O)N[C@H](CCCNC(=N)N)C(=O)N[C@@H](C(=O)N[C@H](Cc1c[nH]c2ccccc12)C(=O)N[C@H](CCCCN)C(N)=O)[C@H](C)CC [D-AP19] (H-[dR][dL][dF][dR][dR][dV][dK][dK][dV][dA]G[dK][dI][dA][dK][dR][dI][dW][dK]-NH2),–,–,–,–,–,–,–,–,–,–,7.81(7.81) µg/ml,7.81(7.81) µg/ml,7.81(7.81) µg/ml,7.81(7.81) µg/ml,7.81,100,more than 70%
